Entries after “also recorded” stand apart in the source; their conditions may differ. Ends that are not written are not given here. Peptide text beside a SMILES is read from it.
B1: Arl6•GppNHp: Arl6 (residues 17–186, Q73L, C-terminal Strep-tag) with the nucleotide exchanged to GppNHp (protein)
chain: EVHVLCLGLDNSGKTTIINKLKPSNAQSQNILPTIGFSIEKFKSSSLSFTVFDMSGLGRYRNLWEHYYKEGQAIIFVIDSSDRLRMVVAKEELDTLLNHPDIKHRRIPILFFANKMDLRDAVTSVKVSQLLCLENIKDKPWHICASDAIKGEGLQEGVDWLQDQIQTVKT
modifications: left off: Strep-tag, C-terminal, kept
notes: Arl6 (residues 17–186, Q73L, C-terminal Strep-tag) with the nucleotide exchanged to GppNHp
B2: Arl6•GDP: Arl6 (residues 17–186, Q73L, C-terminal Strep-tag) with the nucleotide exchanged to GDP (protein)
chain: B1 chain
modifications: left off: Strep-tag, C-terminal, kept
notes: Arl6 (residues 17–186, Q73L, C-terminal Strep-tag) with the nucleotide exchanged to GDP

tested on: core BBSome; experiment: Pulldown of core BBSome with immobilized bait on Streptactin beads; assay type: binding, human; settings: 7.5 fold molar excess of bait immobilized to Streptactin-coupled Sepharose beads
Description: From previous data, BBS1 seems to be the BBSome subunit most relevant for cargo recognition and Arl6 binding. We first tested the binding of Arl6 to the BBSome core complex. […] To test whether the core BBSome can recognize known BBSome cargo proteins, we generated a truncated (residues R546-L665) version of the Smo receptor, which contains a ciliary targeting motif predicted to interact with the BBSome ([Zhang et al., 2012a]; [Seo et al., 2011]; [Corbit et al., 2005]). In pulldown experiments as described above (Figure 3), the binding was clearly detectable, but considerably weaker than that of Arl6•GppNHp. In fluorescence polarization experiments (see below), we determined the affinity for a fluoresceine-labeled version of this Smo fragment to be 36.1 ± 3.9 µM.
Figure 3. Pulldown of core BBSome with immobilized Arl6 and Smoothened domain R546-L665. Purified core BBSome samples were pulled down by a 7.5 fold molar excess of Arl6•GDP, Arl6•GppNHp or Smo(R546-L665) immobilized to Streptactin-coupled Sepharose beads. […] Smo(R546-L665) bound weaker, but still captured >2% of the BBSome sample. This was approximated by a comparison of the 1:50 diluted Arl6•GppNHp elution with the undiluted Smo(R546-L665) elution in a Flag-blot against Flag-BBS8 from the BBSome core complex.
Pulldown assays were performed using 20 µl Strep-Tactin Superflow high capacity resin (IBA, Germany) per assay equilibrated with pulldown buffer (50 mM Hepes pH 8.0, 150 mM NaCl, 5 mM MgCl2, 5 mM ß-ME and 0.05% DDM). Smo(R546-L665, N-terminal Strep-tag) and Arl6 (residues 17–186, Q73L, C-terminal Strep-tag, with the nucleotide exchanged to either GDP or GppNHp) was immobilized as the bait, and the 6mer BBSome core complex served as the prey (The dual-Strep-tag on BBS18 within the complex was completely removed by Prescission protease cleavage for this experiment). 35 µg of the bait proteins were incubated with the beads in 1 ml pulldown buffer at 4°C for 1 hr, and the unbound protein was washed away with 3 × 1 ml pulldown buffer. […]

Molecule | pulldown of core BBSome (result in words)
B1 | precipitated the major part of the BBSome
B2 | no detectable affinity; also recorded: no interaction

same assay, conditions: 7.5 fold molar excess of bait immobilized to Streptactin-coupled Sepharose beads; listed as Arl6•GppNHP

Molecule | pulldown of core BBSome (result in words)
B1 | captured most of the BBSome sample

tested on: T1, core BBSome (BBS1,4,5,8,9,18); experiment: Fluorescence polarization binding of fluorescently labeled peptides to the core BBSome; design: species or system human; settings: not given
T1 construct: His-tag; made in house; host or cells: Hi5 insect cells (baculovirus)
Description: Our microarray data indicated multiple closely spaced binding epitopes in several cases. Where possible, we combined those epitopes into a single fluorescent peptide with up to 37 residues length to more fully reflect the binding site/motif. […] Cargo binding to the core BBSome with fluorescence polarization, measured by using fluorescently labeled peptides and the purified core BBSome. […] All peptides were N-terminally labeled with fluorescein, with an exception of a C-terminally TMR-labeled SSTR3 CT1 peptide (orange squares) that was used as a control to exclude nonspecific binding events due to the used fluorophore. […] (Data points exceeding this mark might indicate secondary binding events at high BBSome concentrations). (C) Fluorescent peptides from the C-terminus of Smo (Smo CT1-4) and a truncated Smoothened construct (Smo […]-[…]) were analyzed as described above. (D) The peptide SSTR3 CT2 that bound with highest affinity to the core BBSome was used as a template for the design and analysis of mutant peptides (SSTR3 CT3-9) with substitutions of one or multiple residues as indicated. Polarization experiments were performed as described above and dissociation constants (KD) are presented as ratios to the KD of the wild type peptide as a bar diagram. (E) Bar diagram of the relative affinities of SmoCT1 and CT3 relative to SmoCT4, as determined in C, and of mutant Smo CT4 peptides with substitutions as indicated. […] Cargo binding to the core BBSome. […] Core BBSome was added at the indicated concentrations and the increase in fluorescence polarization was monitored as a measure for the peptides binding to the protein complex. […] Mutational analysis of the BBSome binding peptides. […] The peptides SSTR3 CT2 (A) and of Smo CT4 (B) that bound with highest affinity to the core BBSome were used as templates for the design of mutant peptides with one or multiple aromatic/basic residue motifs changed to alanines as summarized in Table 1. Core BBSome was added at the indicated concentrations and the increase in fluorescence polarization was monitored as a measure for the peptides binding to the protein complex. […] Fluorescently labeled peptides were purchased from Proteogenix (Proteogenix SAS, France). Fluorescein-labels are located N-terminally to the peptide sequence and TAMRA at the C-terminal side. Fluorescence polarization experiments were performed using a Fluoromax-4 spectrophotometer (HORIBA Jobin Yvon, Germany) or a Safire two multimode plate reader (Tecan, Switzerland). Fluoresceine-labeled samples were measured with excitation/emission wavelengths of λEx = 490 nm and λEm = 520 nm with a bandwidth of 7 nm on the Fluoromax-4. […] Sample volumes were 20 μl in a 1,5 × 1,5 mm cuvette (Hellma Analytics, Germany) for the Fluoromax-4 and 4.5 μl in a 384 well low-binding plate (Corning, Germany). Data analysis was done with the Origin 9.0 program suite (Originlab, Northampton, MA). The polarization curves were fit against the function FI = Fmin […] Fmax corresponding to the fluorescence polarization signal and the signal of unbound and completely saturated fluorescent molecule E with interaction partner L, respectively. The concentrations of molecule E are indicated in the corresponding figure legends, and the calculated dissociation constants KD are listed in Table 1.

T1 sequence (Q8NFJ9 whole entry, stated change not applied): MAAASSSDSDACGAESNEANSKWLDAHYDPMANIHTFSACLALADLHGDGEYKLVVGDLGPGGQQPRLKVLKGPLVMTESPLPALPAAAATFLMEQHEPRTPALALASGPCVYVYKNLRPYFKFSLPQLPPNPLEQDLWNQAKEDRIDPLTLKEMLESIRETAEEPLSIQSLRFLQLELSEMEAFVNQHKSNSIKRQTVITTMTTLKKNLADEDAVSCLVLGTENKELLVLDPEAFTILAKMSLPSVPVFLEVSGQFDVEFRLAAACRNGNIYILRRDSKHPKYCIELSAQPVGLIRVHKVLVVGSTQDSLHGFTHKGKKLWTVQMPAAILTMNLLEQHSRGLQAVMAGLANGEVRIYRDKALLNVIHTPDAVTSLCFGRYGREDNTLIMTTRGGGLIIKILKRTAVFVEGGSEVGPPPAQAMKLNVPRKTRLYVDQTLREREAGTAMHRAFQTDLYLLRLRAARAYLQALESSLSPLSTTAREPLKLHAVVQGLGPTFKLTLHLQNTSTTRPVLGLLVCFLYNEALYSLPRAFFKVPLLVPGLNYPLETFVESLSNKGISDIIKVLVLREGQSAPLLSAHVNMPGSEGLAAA
T1 sequence (Q96RK4 whole entry, stated change not applied, further chain): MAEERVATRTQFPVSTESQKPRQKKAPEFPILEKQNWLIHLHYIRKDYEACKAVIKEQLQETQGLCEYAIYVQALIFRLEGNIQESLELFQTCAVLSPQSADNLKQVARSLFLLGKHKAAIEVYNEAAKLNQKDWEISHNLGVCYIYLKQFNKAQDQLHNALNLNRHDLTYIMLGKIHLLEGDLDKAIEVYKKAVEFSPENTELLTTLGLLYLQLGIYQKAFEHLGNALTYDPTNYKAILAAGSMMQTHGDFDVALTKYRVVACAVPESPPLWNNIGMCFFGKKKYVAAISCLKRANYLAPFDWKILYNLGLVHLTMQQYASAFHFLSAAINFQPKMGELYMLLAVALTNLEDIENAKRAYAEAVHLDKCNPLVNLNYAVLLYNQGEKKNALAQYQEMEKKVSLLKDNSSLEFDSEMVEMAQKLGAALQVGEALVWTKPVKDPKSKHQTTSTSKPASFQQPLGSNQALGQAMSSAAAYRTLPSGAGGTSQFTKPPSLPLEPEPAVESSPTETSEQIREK
T1 sequence (Q8N3I7 whole entry, stated change not applied, further chain): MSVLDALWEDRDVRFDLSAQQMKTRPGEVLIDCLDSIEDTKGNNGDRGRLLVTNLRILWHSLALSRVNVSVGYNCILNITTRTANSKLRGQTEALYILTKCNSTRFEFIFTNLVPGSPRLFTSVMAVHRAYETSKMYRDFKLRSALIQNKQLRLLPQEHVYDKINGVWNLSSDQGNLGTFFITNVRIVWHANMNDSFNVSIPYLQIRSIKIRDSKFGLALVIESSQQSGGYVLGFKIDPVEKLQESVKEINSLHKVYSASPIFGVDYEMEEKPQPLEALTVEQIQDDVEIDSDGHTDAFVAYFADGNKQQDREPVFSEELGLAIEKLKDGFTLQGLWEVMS
T1 sequence (Q8TAM2 with tags, fused parts or gaps isoform Q8TAM2-4 DEL39-48, further chain): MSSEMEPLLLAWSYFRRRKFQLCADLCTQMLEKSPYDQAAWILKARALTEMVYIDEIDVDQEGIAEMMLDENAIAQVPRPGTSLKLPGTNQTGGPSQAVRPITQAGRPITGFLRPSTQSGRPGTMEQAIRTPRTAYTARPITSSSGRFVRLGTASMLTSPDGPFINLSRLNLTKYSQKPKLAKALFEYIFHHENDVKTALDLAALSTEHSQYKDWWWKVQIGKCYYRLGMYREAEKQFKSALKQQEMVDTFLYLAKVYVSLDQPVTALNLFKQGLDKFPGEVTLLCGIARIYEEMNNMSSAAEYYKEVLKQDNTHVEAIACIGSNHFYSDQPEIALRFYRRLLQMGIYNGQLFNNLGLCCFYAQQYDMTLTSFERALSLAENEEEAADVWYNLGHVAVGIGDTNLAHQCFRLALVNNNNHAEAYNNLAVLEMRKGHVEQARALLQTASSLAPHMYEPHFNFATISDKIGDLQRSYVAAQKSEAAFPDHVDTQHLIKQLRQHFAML
T1 sequence (Q3SYG4 whole entry, stated change not applied, further chain): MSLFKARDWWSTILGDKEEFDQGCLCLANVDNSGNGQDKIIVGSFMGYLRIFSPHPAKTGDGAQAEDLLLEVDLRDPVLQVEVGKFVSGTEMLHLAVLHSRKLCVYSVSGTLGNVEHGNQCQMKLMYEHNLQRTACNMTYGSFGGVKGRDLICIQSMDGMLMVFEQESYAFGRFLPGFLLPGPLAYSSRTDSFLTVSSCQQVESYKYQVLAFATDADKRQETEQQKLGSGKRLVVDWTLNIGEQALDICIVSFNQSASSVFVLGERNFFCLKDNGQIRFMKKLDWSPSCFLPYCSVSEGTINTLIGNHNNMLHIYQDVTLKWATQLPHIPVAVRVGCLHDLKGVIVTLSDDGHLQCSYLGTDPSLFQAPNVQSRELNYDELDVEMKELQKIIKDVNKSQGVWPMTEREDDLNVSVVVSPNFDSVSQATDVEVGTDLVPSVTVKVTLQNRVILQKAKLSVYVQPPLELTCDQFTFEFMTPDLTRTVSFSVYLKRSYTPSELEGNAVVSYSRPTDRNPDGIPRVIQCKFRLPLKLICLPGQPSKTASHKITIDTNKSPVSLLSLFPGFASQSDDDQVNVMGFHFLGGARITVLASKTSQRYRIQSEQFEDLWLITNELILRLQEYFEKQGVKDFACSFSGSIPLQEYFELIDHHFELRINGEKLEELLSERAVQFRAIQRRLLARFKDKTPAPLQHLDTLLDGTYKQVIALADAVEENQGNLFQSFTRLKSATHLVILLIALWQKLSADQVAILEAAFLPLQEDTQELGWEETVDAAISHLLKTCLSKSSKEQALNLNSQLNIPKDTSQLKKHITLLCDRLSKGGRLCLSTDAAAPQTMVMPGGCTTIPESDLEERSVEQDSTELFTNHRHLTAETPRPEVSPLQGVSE
T1 sequence (A8MTZ0 whole entry partner): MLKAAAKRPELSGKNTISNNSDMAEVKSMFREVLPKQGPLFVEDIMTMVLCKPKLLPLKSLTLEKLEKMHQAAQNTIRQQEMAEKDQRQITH

binding to core BBSome (result in words) | Molecule
only weak interaction | KRIKKSKMIAKAFSK [Smo CT2]

same assay, conditions: N-terminally fluorescein-labeled peptide 0.1–1 µM titrated with purified core BBSome, fitted to binding curve

Molecule | Kd
TLLIAARTAARLTGQSDDE [Smo CT7] | 14.3 µM

same assay, conditions: N-terminally fluorescein-labeled peptide 0.1–1 µM titrated with purified core BBSome, fitted to binding curve, read-out: KD (converted)

Kd | Molecule
44.2 ± 10.9 µM | CC(C)C[C@H](NC(=O)[C@H](C)NC(=O)[C@H](CCCNC(=N)N)NC(=O)[C@H](CCCCN)NC(=O)[C@H](Cc1ccccc1)NC(=O)[C@H](CC(=O)O)NC(=O)[C@@H](N)CCCNC(=N)N)C(=O)NCC(=O)N[C@@H](CCCNC(=N)N)C(=O)N[C@@H](Cc1ccccc1)C(=O)N[C@@H](CC(C)C)C(=O)N1CCC[C@H]1C(=O)N[C@@H](CS)C(=O)N1CCC[C@H]1C(=O)N[C@@H](CCCNC(=N)N)C(=O)N[C@@H](CS)C(=O)N1CCC[C@H]1C(=O)N[C@@H](CCCNC(=N)N)C(=O)N[C@@H](CCC(=O)O)C(=O)N[C@@H](CCCNC(=N)N)C(=O)O [5HT6 CT] (H-RDFKRALGRFLPCPRCPRER-OH)
6.3 ± 1.5 µM | FIFRVARVKARKVHCG [GPR161 3ICL]
11 µM | GFLSAAAAQGAARVLLRPSRRVRS [SSTR3 CT8]
1 µM | GFLSAAAAQGFRRVLLRPSRRVRS [SSTR3 CT7]
4.5 µM | GFLSAAFKQGAARVLLRPSRRVRS [SSTR3 CT6]
1.1 µM | GFLSAAFKQGFRRVLLRPSRRVRS [SSTR3 CT3]
0.4 µM | GFLSYRAAQGFRRVLLRPSRRVRS [SSTR3 CT4]
1.5 µM | GFLSYRFKQGAARVLLRPSRRVRS [SSTR3 CT5]
4.7 µM | GFLSYRFKQGFRRVLLRPSEEVES [SSTR3 CT9]
0.11 µM | GFLSYRFKQGFRRVLLRPSRRVRS [SSTR3 CT2]
> 100 µM | GRGSAAARSRYTCRLQQHDRGRRQ [NMU 3ICL2, N-terminally fluorescein-labeled peptide from the third intracellular loop of NMU-R1]
> 100 µM | KRIKKSKMIAKAFSK [Smo CT2]
6.8 µM | KRLGRKKKRRKRKKE [Smo CT8]
18.1 ± 1.6 µM | LLIGLRLRRERLLLMQEAKGRG [NMU 3ICL1]
67.4 ± 7.3 µM | NKTVRKELLGMCFGDRYYREPFVQRQR [GPR161 CT1]
22.1 ± 1.4 µM | RFKQGFRRVLLRPSR [SSTR3 CT1]
68.8 ± 11.3 µM | RILQRMTSSVAPASQRSIRLRTKRVTRT [MCH 3ICL]
9.7 µM | TLLIAARTWCRLTGQSDDE [Smo CT5]
12.5 µM | TLLIWRRTAARLTGQSDDE [Smo CT6]
1.8 ± 0.5 µM | TLLIWRRTWCRLTGQ [Smo CT1]
1.1 µM | TLLIWRRTWCRLTGQSDDE [Smo CT4]
1.4 µM | TLLIWRRTWCRLTGQSDDEPKRIKKSKMIAKAFSKRH [Smo CT3]
12.8 ± 1.07 µM | VKVRSAGRRVWAPSCQRRRRSERRVTRM [SSTR3 3ICL]
> 100 µM | VTARTVPGGGFGGRRGSRTLVS [GPR161 CT2, N-terminally fluorescein-labeled peptide from the C-terminal region of GPR161]
